Results taken from paper PMC9241644, “Evaluation of Novel Quorum Sensing Inhibitors Targeting Auto-Inducer 2 (AI-2) for the Control of Avian Pathogenic Escherichia coli Infections in Chickens” (Microbiology Spectrum, 2022).

Legend:
Rif^R APEC O78 [1] = assay: Optimization of therapeutic dose of QSI-5 in drinking water, APEC-infected chickens; type: in vivo, Escherichia coli; conditions: for mortality reduction compared with PC group: PC normalized to 100%; for Mortality rate % (Nr.) / Average lesion severity, Lung / Average lesion severity, Liver / Average lesion severity, Heart / Average lesion severity, Airsac / Average APEC load, Kidney / Average APEC load, Lung / Average APEC load, Heart / Average APEC load, Liver: Table S2; for Mortality rate % (Nr.): PC 88.9 (8/9); for Average lesion severity, Lung: PC 1.11; for Average lesion severity, Liver: PC 2.11; for Average lesion severity, Heart: PC 2.78; for Average lesion severity, Airsac: PC 3.11; for Average APEC load, Kidney: PC 7.84; for Average APEC load, Lung: PC 7.93; for Average APEC load, Heart: PC 8.37; for Average APEC load, Liver: PC 8.46
From the text: (§1) Chickens were monitored for clinical signs for 8 DPI. Any chickens moribund during this period were humanely euthanized and necropsied to determine bacterial load in the internal organs (liver, heart, lung, and kidney). Internal organs were aseptically collected, weighed and suspended in 1× PBS, the amount of PBS added was adjusted based on the organ size to make a suspension, the organ size and amount of PBS added were included in the final calculation of the CFU. The samples were homogenized, serially diluted 10-fold, plated on MacConkey agar (Remel, CA, USA) containing 50 μg/mL rifampicin, and incubated at 37°C for 24 h to determine the CFU/g. Pathological lesions severity in internal organs (pericarditis, perihepatitis, airsacculitis, and lung congestion) was scored as described previously ([21], [59]). At 8 DPI, the remaining chickens were humanely euthanized and necropsied, lesions were scored, and the APEC load was quantified in internal organs as described above.
One-day-old broiler chickens (n = 10/group) (Case Farms Ohio Hatchery, Strasburg, OH, USA) were used in this experiment. QSI-5 was synthesized in-house in the Fuchs laboratory (College of Pharmacy, OSU) via reductive amination reaction of commercially available 3-phenylpropionaldehyde with 1-(4-methylbenzyl) piperazine in the presence of acetic acid and sodium triacetoxyborohydride (Fig. S4). QSI-5 was administered daily in drinking water containing 0.05% DMSO at doses of 1 mg/L, 5 mg/L, 10 mg/L, and 20 mg/L for seven consecutive days starting from day 4 to day 10 of age. The amount of drinking water given daily was calculated based on the age of chickens (http://www.poultryhub.org/nutrition/nutrient-requirements/water-consumption-rates-for-chickens/). Chickens were infected with Rif^r APEC O78 (5 × 10^6 CFU/chicken) on day 5 as described above. The PC (0.05% DMSO treated and infected) and NC (non-treated and non-infected) control groups were included. The clinical signs and the daily mortality were recorded for 8 DPI. Dead chickens were necropsied, and APEC load was quantified in the internal organs as mentioned above. At 8 DPI, the remaining chickens were necropsied, lesions were scored, and the APEC load was quantified in internal organs as described above.

Rif^R APEC O78 [2] = assay: Efficacy of QSIs in APEC-infected chickens (oral gavage pilot); type: in vivo, Escherichia coli; conditions: Table S1, oral gavage pilot
Protocol: The chicken experiment was carried out using 1-day-old broiler chickens (Mayer Hatchery, OH, USA). Feed and water were given ad libitum. Chickens (n = 6/group) were administered with the QSIs (QSI-1, QSI-2, QSI-5 − 8, QSI-10, ChemBridge, San Diego, CA); previously designated as C1, C2, C5, C6, C7, C8, C10 ([17]) using oral gavage. These compounds were selected based on their high efficacy in in vitro studies and the doses correspond to 30X of the initial in vitro screening concentration ([17]). The QSIs were suspended in dimethyl sulfoxide (DMSO; used as a vehicle) and administered once daily for 5 successive days (starting from day 4 to day 8). The first dose was administered 1 day before the challenge, followed by the second dose on the challenge day (2 h before challenge), followed by three additional doses on subsequent days. Feeders were removed 1 h prior to the treatment and replaced 1 h after the treatment. Chickens were challenged subcutaneously (s/c) on day 5 with Rif^R APEC O78 (1 × 10^7 CFU/bird) in PBS using syringe (27 gauge, 0.5 in.). The challenge dose, which […], was chosen based on preliminary experiments conducted with different infection routes (subcutaneous s/c, intra-tracheal and intra-airsacs) and different doses (10^6, 10^7, and 10^8 CFU/chicken). […] Therefore, we selected this challenge dose and route for evaluation of QSIs in chickens ([34]). The positive (PC; infected with APEC O78 and DMSO treated) and negative (NC; non-infected and non-treated) control groups were included.
as §1

For Cc1ccc(CN2CCN(CCCc3ccccc3)CC2)cc1 [QSI-5], the “mortality reduction compared with PC group” value (“mortality reduction” below) (Rif^R APEC O78 [1]; QSI-5 1 mg/L in drinking water 7 days, s/c APEC O78 5 × 10^6 CFU/chicken) was 58%, the “mortality reduction” value (Rif^R APEC O78 [1]; QSI-5 5 mg/L in drinking water 7 days) was 25% and the “mortality reduction” value (Rif^R APEC O78 [1]; QSI-5 10 mg/L in drinking water 7 days) was 50%. The “mortality reduction” value (Rif^R APEC O78 [1]; QSI-5 20 mg/L in drinking water 7 days) was 25%, the “Mortality rate % (Nr.)” value (Rif^R APEC O78 [1]; QSI-5 1 mg/L, (3/8)) was 37.5% and the “Average lesion severity, Lung” value (Rif^R APEC O78 [1]; QSI-5 1 mg/L) was 0.33. The “Average lesion severity, Liver” value (Rif^R APEC O78 [1]; QSI-5 1 mg/L) was 1.25, the “Average lesion severity, Heart” value (Rif^R APEC O78 [1]; QSI-5 1 mg/L) was 1.63 and the “Average lesion severity, Airsac” value (Rif^R APEC O78 [1]; QSI-5 1 mg/L) was 1.38. The “Average APEC load, Kidney” value (Rif^R APEC O78 [1]; QSI-5 1 mg/L) was 5.06 Log CFU/ g of tissue, the “Average APEC load, Lung” value (Rif^R APEC O78 [1]; QSI-5 1 mg/L) was 5.68 Log CFU/ g of tissue and the “Average APEC load, Heart” value (Rif^R APEC O78 [1]; QSI-5 1 mg/L) was 5.71 Log CFU/ g of tissue. The “Average APEC load, Liver” value (Rif^R APEC O78 [1]; QSI-5 1 mg/L) was 5.33 Log CFU/ g of tissue, the “Mortality rate % (Nr.)” value (Rif^R APEC O78 [1]; QSI-5 5 mg/L, (6/9)) was 66.6% and the “Average lesion severity, Lung” value (Rif^R APEC O78 [1]; QSI-5 5 mg/L) was 0.38. For the same compound, the “Average lesion severity, Liver” value (Rif^R APEC O78 [1]; QSI-5 5 mg/L) was 1.33, the “Average lesion severity, Heart” value (Rif^R APEC O78 [1]; QSI-5 5 mg/L) was 1.89 and the “Average lesion severity, Airsac” value (Rif^R APEC O78 [1]; QSI-5 5 mg/L) was 1.33. The “Average APEC load, Kidney” value (Rif^R APEC O78 [1]; QSI-5 5 mg/L) was 6.10 Log CFU/ g of tissue, the “Average APEC load, Lung” value (Rif^R APEC O78 [1]; QSI-5 5 mg/L) was 5.86 Log CFU/ g of tissue and the “Average APEC load, Heart” value (Rif^R APEC O78 [1]; QSI-5 5 mg/L) was 6.09 Log CFU/ g of tissue. For the same compound, the “Average APEC load, Liver” value (Rif^R APEC O78 [1]; QSI-5 5 mg/L) was 6.03 Log CFU/ g of tissue, the “Mortality rate % (Nr.)” value (Rif^R APEC O78 [1]; QSI-5 10 mg/L, (4/9)) was 44.4% and the “Average lesion severity, Lung” value (Rif^R APEC O78 [1]; QSI-5 10 mg/L) was 0.78. The “Average lesion severity, Liver” value (Rif^R APEC O78 [1]; QSI-5 10 mg/L) was 2.11, the “Average lesion severity, Heart” value (Rif^R APEC O78 [1]; QSI-5 10 mg/L) was 2.44 and the “Average lesion severity, Airsac” value (Rif^R APEC O78 [1]; QSI-5 10 mg/L) was 2.33. For the same compound, the “Average APEC load, Kidney” value (Rif^R APEC O78 [1]; QSI-5 10 mg/L) was 6.20 Log CFU/ g of tissue, the “Average APEC load, Lung” value (Rif^R APEC O78 [1]; QSI-5 10 mg/L) was 6.37 Log CFU/ g of tissue and the “Average APEC load, Heart” value (Rif^R APEC O78 [1]; QSI-5 10 mg/L) was 7.32 Log CFU/ g of tissue. The “Average APEC load, Liver” value (Rif^R APEC O78 [1]; QSI-5 10 mg/L) was 5.84 Log CFU/ g of tissue, the “Mortality rate % (Nr.)” value (Rif^R APEC O78 [1]; QSI-5 20 mg/L, (6/9)) was 66.6% and the “Average lesion severity, Lung” value (Rif^R APEC O78 [1]; QSI-5 20 mg/L) was 0.44. For the same compound, the “Average lesion severity, Liver” value (Rif^R APEC O78 [1]; QSI-5 20 mg/L) was 1.22, the “Average lesion severity, Heart” value (Rif^R APEC O78 [1]; QSI-5 20 mg/L) was 2.11 and the “Average lesion severity, Airsac” value (Rif^R APEC O78 [1]; QSI-5 20 mg/L) was 1.67. The “Average APEC load, Kidney” value (Rif^R APEC O78 [1]; QSI-5 20 mg/L) was 6.56 Log CFU/ g of tissue, the “Average APEC load, Lung” value (Rif^R APEC O78 [1]; QSI-5 20 mg/L) was 6.58 Log CFU/ g of tissue and the “Average APEC load, Heart” value (Rif^R APEC O78 [1]; QSI-5 20 mg/L) was 6.69 Log CFU/ g of tissue. For the same compound, the “Average APEC load, Liver” value (Rif^R APEC O78 [1]; QSI-5 20 mg/L) was 6.53 Log CFU/ g of tissue, the “Average lesion severity, Lung” value (Rif^R APEC O78 [2]; lesion score, PC 1.25) was 0.17 and the “Average lesion severity, Liver” value (Rif^R APEC O78 [2]; lesion score, PC 1.75) was 0.33. For the same compound, the “Average lesion severity, Airsac” value (Rif^R APEC O78 [2]; lesion score, PC 2.00) was 0.17, the “Average lesion severity, Heart” value (Rif^R APEC O78 [2]; lesion score, PC 2.25) was 0.33 and the “Mortality rate % (Nr.)” value (Rif^R APEC O78 [2]; n = 6/group, 8 DPI, PC 66.6 (4/6)) was 0%. The “Average APEC load, Liver” value (Rif^R APEC O78 [2]; PC 5.95) was 0.72 Log CFU/g of tissue, the “Average APEC load, Heart” value (Rif^R APEC O78 [2]; PC 5.98) was 0.58 Log CFU/g of tissue and the “Average APEC load, Kidney” value (Rif^R APEC O78 [2]; PC 6.81) was 0.67 Log CFU/g of tissue. For the same compound, the “Average APEC load, Lung” value (Rif^R APEC O78 [2]; PC 6.83) was 0.75 Log CFU/g of tissue.
